Laboratory results published in PubChem BioAssay (NCI).
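Results reflect a 48-hour exposure of cells in 96-well plates to compound at five concentrations. At the GI50, growth is halved. Definition used: TGI = concentration required for complete inhibition of growth.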

Key:
Experiment in all cases: inhibition of tumour cell growth, NCI panel, 48 h
DLD-1 colon = system: DLD-1 colon
HOP-92 NSCLC = system: HOP-92 NSCLC
IGROV1 ovarian = system: IGROV1 ovarian
M19-MEL melanoma = system: M19-MEL melanoma
NCI-H226 lung = system: NCI-H226 lung
SF-268 CNS = system: SF-268 CNS
UACC-62 melanoma = system: UACC-62 melanoma
LOX IMVI melanoma = system: LOX IMVI melanoma
MDA-MB-231 breast = system: MDA-MB-231 breast
PC-3 prostate = system: PC-3 prostate

N#CC(C(=O)CCC(=O)Nc1ccc(Cl)c(Cl)c1)c1ccccc1 (stereo not given)
TGI (DLD-1 colon): > 100 µM
TGI (HOP-92 NSCLC): > 100 µM
TGI (IGROV1 ovarian): > 100 µM
TGI (M19-MEL melanoma): > 100 µM
TGI (NCI-H226 lung): > 100 µM
TGI (SF-268 CNS): > 100 µM
TGI (UACC-62 melanoma): > 100 µM

O=C(Nc1nc(=S)[nH][nH]1)C(=O)C(C(=O)c1ccc2ccccc2c1)C1OC(=O)c2ccccc21 (stereo not given)
TGI (DLD-1 colon): 44.6 µM
TGI (HOP-92 NSCLC): 73.7 µM
TGI (IGROV1 ovarian): 53.7 µM
TGI (LOX IMVI melanoma): 39 µM
TGI (M19-MEL melanoma): 30.6 µM
TGI (NCI-H226 lung): 19.8 µM
TGI (SF-268 CNS): > 100 µM
TGI (UACC-62 melanoma): 30.2 µM

O=C(NC1C=CCC2C(=O)N(c3ccccc3)C(=O)C12)OCc1ccccc1 (stereo not given)
TGI (DLD-1 colon): > 100 µM
TGI (HOP-92 NSCLC): > 100 µM
TGI (IGROV1 ovarian): > 100 µM
TGI (LOX IMVI melanoma): > 100 µM
TGI (M19-MEL melanoma): > 100 µM
TGI (NCI-H226 lung): > 100 µM
TGI (SF-268 CNS): > 100 µM
TGI (UACC-62 melanoma): > 100 µM

CN1C(=O)C(=O)N2c3ccc(Cl)cc3C3(c4ccccc4)N=CC12O3 (stereo not given)
TGI (DLD-1 colon): 10.3 µM
TGI (HOP-92 NSCLC): 6.63 µM
TGI (IGROV1 ovarian): 40 µM
TGI (M19-MEL melanoma): 13.7 µM
TGI (NCI-H226 lung): 26.8 µM
TGI (SF-268 CNS): 25.6 µM
TGI (UACC-62 melanoma): 15.3 µM

Cc1nc(-c2nc(C)c(C(=O)NNC(=O)C[n+]3ccccc3)s2)sc1C(=O)NNC(=O)C[n+]1ccccc1
TGI (DLD-1 colon): > 100 µM
TGI (HOP-92 NSCLC): > 100 µM
TGI (IGROV1 ovarian): > 100 µM
TGI (LOX IMVI melanoma): > 100 µM
TGI (M19-MEL melanoma): > 100 µM
TGI (NCI-H226 lung): > 100 µM
TGI (SF-268 CNS): > 100 µM
TGI (UACC-62 melanoma): > 100 µM

CC1(C)CC(c2c[nH]c3ccccc23)=CC2=Nc3ccccc3C21O (stereo not given)
TGI (DLD-1 colon): > 100 µM
TGI (HOP-92 NSCLC): 64.3 µM
TGI (IGROV1 ovarian): > 100 µM
TGI (LOX IMVI melanoma): > 100 µM
TGI (M19-MEL melanoma): > 100 µM
TGI (NCI-H226 lung): 57.7 µM
TGI (SF-268 CNS): > 100 µM
TGI (UACC-62 melanoma): > 100 µM

Clc1ccc2cccc3c2c1C1OC3c2ccccc21 (stereo not given)
TGI (DLD-1 colon): > 100 µM
TGI (HOP-92 NSCLC): > 100 µM
TGI (IGROV1 ovarian): > 100 µM
TGI (LOX IMVI melanoma): > 100 µM
TGI (M19-MEL melanoma): > 100 µM
TGI (NCI-H226 lung): > 100 µM
TGI (SF-268 CNS): > 100 µM
TGI (UACC-62 melanoma): > 100 µM

S=P1(Oc2ccccc2)NNP2(=NP(N3CC3)(N3CC3)=NP(N3CC3)(N3CC3)=N2)NN1 (stereo not given)
TGI (DLD-1 colon): > 100 µM
TGI (IGROV1 ovarian): > 100 µM
TGI (LOX IMVI melanoma): > 100 µM
TGI (M19-MEL melanoma): > 100 µM
TGI (NCI-H226 lung): > 100 µM
TGI (SF-268 CNS): > 100 µM
TGI (UACC-62 melanoma): > 100 µM

CCOC(=O)C1Sc2ccccc2N=C1C (stereo not given)
TGI (DLD-1 colon): > 100 µM
TGI (HOP-92 NSCLC): > 100 µM
TGI (IGROV1 ovarian): > 100 µM
TGI (LOX IMVI melanoma): > 100 µM
TGI (M19-MEL melanoma): > 100 µM
TGI (NCI-H226 lung): > 100 µM
TGI (SF-268 CNS): > 100 µM

O=C(O)CSc1n[nH]c(-c2ccccc2O)n1
TGI (DLD-1 colon): > 100 µM
TGI (HOP-92 NSCLC): > 100 µM
TGI (IGROV1 ovarian): > 100 µM
TGI (LOX IMVI melanoma): > 100 µM
TGI (M19-MEL melanoma): > 100 µM
TGI (NCI-H226 lung): > 100 µM
TGI (SF-268 CNS): > 100 µM
TGI (UACC-62 melanoma): > 100 µM

C=C(C)C(=O)O[C@@H]1C[C@@]2(C)O[C@@H]2C[C@H](O)/C(C)=C/[C@H]2OC(=O)C(=C)[C@@H]21
TGI (HOP-92 NSCLC): > 100 µM
TGI (IGROV1 ovarian): > 100 µM
TGI (LOX IMVI melanoma): > 100 µM
TGI (MDA-MB-231 breast): > 100 µM
TGI (NCI-H226 lung): > 100 µM
TGI (PC-3 prostate): > 100 µM
TGI (SF-268 CNS): > 100 µM
TGI (UACC-62 melanoma): > 100 µM

CC(=O)OCc1ccc2c(c1)C(O)NC(=O)O2 (stereo not given)
TGI (HOP-92 NSCLC): > 100 µM
TGI (IGROV1 ovarian): > 100 µM
TGI (LOX IMVI melanoma): > 100 µM
TGI (MDA-MB-231 breast): > 100 µM
TGI (NCI-H226 lung): > 100 µM
TGI (PC-3 prostate): > 100 µM
TGI (SF-268 CNS): > 100 µM
TGI (UACC-62 melanoma): > 100 µM

COc1c2ccccc2c(OC)c2[nH]c(=O)ccc12
GI50 (HOP-92 NSCLC): 33.5 µM
TGI (HOP-92 NSCLC): > 100 µM
GI50 (IGROV1 ovarian): 5.73 µM
TGI (IGROV1 ovarian): > 100 µM
GI50 (LOX IMVI melanoma): 1.84 µM
TGI (LOX IMVI melanoma): > 23 µM
GI50 (MDA-MB-231 breast): 9.75 µM
TGI (MDA-MB-231 breast): > 89.8 µM
GI50 (NCI-H226 lung): 2.37 µM
TGI (NCI-H226 lung): 7.22 µM
GI50 (PC-3 prostate): 5.53 µM
TGI (PC-3 prostate): > 43.7 µM
GI50 (SF-268 CNS): 9.51 µM
TGI (SF-268 CNS): > 100 µM
GI50 (UACC-62 melanoma): 1.65 µM
TGI (UACC-62 melanoma): 3.33 µM

COc1c(CC(C)=O)ccc2c1C(=O)c1ccc(C=O)c(OC(C)=O)c1C2=O
TGI (DLD-1 colon): 14.3 µM
TGI (HOP-92 NSCLC): 44.1 µM
TGI (IGROV1 ovarian): 44.2 µM
TGI (LOX IMVI melanoma): 40.3 µM
TGI (NCI-H226 lung): 36.2 µM
TGI (UACC-62 melanoma): 18.5 µM

O=C1NC(=NCc2ccccc2)S/C1=C\c1ccc2ncccc2c1
GI50 (HOP-92 NSCLC): > 25 µM
TGI (HOP-92 NSCLC): > 25 µM
GI50 (IGROV1 ovarian): > 25 µM
TGI (IGROV1 ovarian): > 25 µM
GI50 (LOX IMVI melanoma): > 25 µM
TGI (LOX IMVI melanoma): > 25 µM
GI50 (MDA-MB-231 breast): > 25 µM
TGI (MDA-MB-231 breast): > 25 µM
GI50 (NCI-H226 lung): > 25 µM
TGI (NCI-H226 lung): > 25 µM
GI50 (PC-3 prostate): > 25 µM
TGI (PC-3 prostate): > 25 µM
GI50 (SF-268 CNS): > 25 µM
TGI (SF-268 CNS): > 25 µM
GI50 (UACC-62 melanoma): > 25 µM
TGI (UACC-62 melanoma): > 25 µM

CCCCCCCCCCCCNC(=S)OC
TGI (DLD-1 colon): 28.9 µM
TGI (HOP-92 NSCLC): 20.1 µM
TGI (IGROV1 ovarian): 24.3 µM
TGI (LOX IMVI melanoma): 28.7 µM
TGI (M19-MEL melanoma): 32.7 µM
TGI (SF-268 CNS): 32.8 µM
TGI (UACC-62 melanoma): 30.7 µM

CCOC(=O)C1=C(C)N(NC(=O)Nc2ccccc2)C2(N)N(NC(=O)Nc3ccccc3)C(C)=C(C(=O)OCC)C12C(=O)OCC (stereo not given)
TGI (DLD-1 colon): > 100 µM
TGI (HOP-92 NSCLC): 42.8 µM
TGI (IGROV1 ovarian): > 100 µM
TGI (LOX IMVI melanoma): > 100 µM
TGI (M19-MEL melanoma): > 100 µM
TGI (SF-268 CNS): > 100 µM
TGI (UACC-62 melanoma): > 100 µM

COC(=O)/C=C/c1cc(OC(C)=O)c2c(c1)[C@@H](C(=O)OC)[C@H](c1ccc(OC(C)=O)c(OC(C)=O)c1)O2
GI50 (HOP-92 NSCLC): 0.769 µM
TGI (HOP-92 NSCLC): 22.4 µM
GI50 (IGROV1 ovarian): 0.176 µM
TGI (IGROV1 ovarian): 38.3 µM
GI50 (LOX IMVI melanoma): 0.0615 µM
TGI (LOX IMVI melanoma): 40.3 µM
GI50 (MDA-MB-231 breast): 0.305 µM
TGI (MDA-MB-231 breast): 34.4 µM
GI50 (NCI-H226 lung): 1.71 µM
TGI (NCI-H226 lung): 27.4 µM
GI50 (PC-3 prostate): 0.316 µM
TGI (PC-3 prostate): 54.7 µM
GI50 (SF-268 CNS): 0.301 µM
TGI (SF-268 CNS): 57.5 µM
GI50 (UACC-62 melanoma): 0.359 µM
TGI (UACC-62 melanoma): 26 µM

CN1CCN(C(=O)COc2ccc(C34CC5CC(CC(C5)C3)C4)cc2)CC1
GI50 (HOP-92 NSCLC): 1.47 µM
TGI (HOP-92 NSCLC): 7.23 µM
GI50 (IGROV1 ovarian): 15 µM
TGI (IGROV1 ovarian): 39.2 µM
GI50 (LOX IMVI melanoma): 12.3 µM
TGI (LOX IMVI melanoma): 25 µM
GI50 (MDA-MB-231 breast): 13 µM
TGI (MDA-MB-231 breast): 27.8 µM
GI50 (NCI-H226 lung): 14 µM
TGI (NCI-H226 lung): 37.4 µM
GI50 (PC-3 prostate): 4.87 µM
TGI (PC-3 prostate): 21.6 µM
GI50 (SF-268 CNS): 16.4 µM
TGI (SF-268 CNS): 39.3 µM
GI50 (UACC-62 melanoma): 11 µM
TGI (UACC-62 melanoma): 23.4 µM

COc1ccc2ncnc(Nc3ccc(OCc4ccccc4)cc3)c2c1
GI50 (HOP-92 NSCLC): 2.92 µM
TGI (HOP-92 NSCLC): 16.9 µM
GI50 (IGROV1 ovarian): 6.61 µM
TGI (IGROV1 ovarian): > 22.2 µM
GI50 (LOX IMVI melanoma): 7.85 µM
TGI (LOX IMVI melanoma): > 25 µM
GI50 (MDA-MB-231 breast): 4.6 µM
TGI (MDA-MB-231 breast): 11.1 µM
GI50 (NCI-H226 lung): 8.1 µM
TGI (NCI-H226 lung): > 25 µM
GI50 (PC-3 prostate): 8.54 µM
TGI (PC-3 prostate): > 25 µM
GI50 (SF-268 CNS): 13.9 µM
TGI (SF-268 CNS): > 25 µM
GI50 (UACC-62 melanoma): 6.12 µM
TGI (UACC-62 melanoma): > 18.1 µM

Cc1ccc(S(=O)(=O)N2CCC2c2ccccc2)cc1 (stereo not given)
TGI (HOP-92 NSCLC): 78.8 µM
TGI (IGROV1 ovarian): > 100 µM
TGI (LOX IMVI melanoma): > 100 µM
TGI (M19-MEL melanoma): > 100 µM
TGI (NCI-H226 lung): > 100 µM
TGI (SF-268 CNS): > 100 µM
TGI (UACC-62 melanoma): > 100 µM

COc1cc2c(cc1OC)-c1cc(OC)c(OC)cc1C(CN(C)C)C2 (stereo not given)
GI50 (HOP-92 NSCLC): 9.97 µM
TGI (HOP-92 NSCLC): > 10 µM
GI50 (IGROV1 ovarian): > 10 µM
TGI (IGROV1 ovarian): > 10 µM
GI50 (LOX IMVI melanoma): > 10 µM
TGI (LOX IMVI melanoma): > 10 µM
GI50 (MDA-MB-231 breast): > 10 µM
TGI (MDA-MB-231 breast): > 10 µM
GI50 (NCI-H226 lung): > 10 µM
TGI (NCI-H226 lung): > 10 µM
GI50 (PC-3 prostate): > 10 µM
TGI (PC-3 prostate): > 10 µM
GI50 (SF-268 CNS): > 10 µM
TGI (SF-268 CNS): > 10 µM
GI50 (UACC-62 melanoma): > 10 µM
TGI (UACC-62 melanoma): > 10 µM
